Data reported in ChEMBL document CHEMBL1201862, “PubChem BioAssay data set” (2004).
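Following 48 hours of exposure in 96-well plates, responses at five concentrations were used to interpolate endpoints linearly. Abbreviation: GI50, concentration required for 50% inhibition of growth.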 Activity calls are given as the source filed them. No stated cut-off is given here; in the data, active = GI50 up to about 1.1 µM and inactive = higher.

Experiments:
Assay in all cases: inhibition of tumour cell growth, NCI panel, 48 h
SR = test system: SR
SK-MEL-28 = test system: SK-MEL-28
M19-MEL = test system: M19-MEL
NCI-H23 = test system: NCI-H23
ACHN = test system: ACHN
U-251 = test system: U-251
HOP-18 = test system: HOP-18
NCI-H460 = test system: NCI-H460
UACC-62 = test system: UACC-62
A498 = test system: A498
786-0 = test system: 786-0
SNB-78 = test system: SNB-78
TK-10 = test system: TK-10
CCRF-CEM = test system: CCRF-CEM
OVCAR-4 = test system: OVCAR-4
HOP-92 = test system: HOP-92
CAKI-1 = test system: CAKI-1
KM12 = test system: KM12
OVCAR-5 = test system: OVCAR-5
SF-268 = test system: SF-268
SF-539 = test system: SF-539
SNB-19 = test system: SNB-19
HT-29 = test system: HT-29
OVCAR-8 = test system: OVCAR-8
SF-295 = test system: SF-295
SK-MEL-2 = test system: SK-MEL-2
A549 = test system: A549
XF498 = test system: XF498
HCT-116 = test system: HCT-116
UO-31 = test system: UO-31
SNB-75 = test system: SNB-75
LOX IMVI = test system: LOX IMVI
DMS-114 = test system: DMS-114
HL-60 = test system: HL-60
MOLT-4 = test system: MOLT-4
DMS-273 = test system: DMS-273
Malme-3M = test system: Malme-3M
UACC-257 = test system: UACC-257
HCT-15 = test system: HCT-15
K562 = test system: K562
HCC 2998 = test system: HCC 2998
M14 = test system: M14
IGROV-1 = test system: IGROV-1
SN12C = test system: SN12C
HOP-62 = test system: HOP-62
NCI-H522 = test system: NCI-H522
EKVX = test system: EKVX
SK-MEL-5 = test system: SK-MEL-5
SK-OV-3 = test system: SK-OV-3
DLD-1 = test system: DLD-1
SW-620 = test system: SW-620
KM-20L2 = test system: KM-20L2
LXFL 529 = test system: LXFL 529
COLO 205 = test system: COLO 205
OVCAR-3 = test system: OVCAR-3
RPMI-8226 = test system: RPMI-8226
RXF 393 = test system: RXF 393
RXF 631 = test system: RXF 631

Q: `CCC1(N=[N+]=[N-])C(=O)c2ccccc2N(c2ccccc2)C1=O` (configuration not stated) was tested. Which GI50 (SR) did it give?
A: Its GI50 is > 100 µM (inactive).

Q: What about the GI50 (SK-MEL-28) of the same compound?
A: Its GI50 is > 100 µM (inactive).

Q: What about the GI50 (M19-MEL) of the same compound?
A: Its GI50 is > 100 µM (inactive).

Q: And the GI50 (NCI-H23)?
A: The GI50 was > 100 µM (inactive).

Q: And the GI50 (ACHN)?
A: The GI50 was > 100 µM (inactive).

Q: What about the GI50 (U-251) of the same compound?
A: The GI50 was > 100 µM (inactive).

Q: What about the GI50 (HOP-18) of the same compound?
A: Its GI50 is > 100 µM (inactive).

Q: And the GI50 (NCI-H460)?
A: The GI50 was > 100 µM (inactive).

Q: What about the GI50 (UACC-62) of the same compound?
A: Its GI50 is > 100 µM (inactive).

Q: What about the GI50 (A498) of the same compound?
A: The GI50 was > 100 µM (inactive).

Q: And the GI50 (786-0)?
A: The GI50 was > 100 µM (inactive).

Q: What about the GI50 (SNB-78) of the same compound?
A: The GI50 was > 100 µM (inactive).

Q: What about the GI50 (TK-10) of the same compound?
A: Its GI50 is > 100 µM (inactive).

Q: What about the GI50 (CCRF-CEM) of the same compound?
A: Its GI50 is > 100 µM (inactive).

Q: What about the GI50 (OVCAR-4) of the same compound?
A: The GI50 was > 100 µM (inactive).

Q: What about the GI50 (HOP-92) of the same compound?
A: Its GI50 is > 100 µM (inactive).

Q: And the GI50 (CAKI-1)?
A: The GI50 was > 100 µM (inactive).

Q: And the GI50 (KM12)?
A: Its GI50 is > 100 µM (inactive).

Q: And the GI50 (OVCAR-5)?
A: Its GI50 is > 100 µM (inactive).

Q: And the GI50 (SF-268)?
A: Its GI50 is > 100 µM (inactive).

Q: What about the GI50 (SF-539) of the same compound?
A: The GI50 was > 100 µM (inactive).

Q: And the GI50 (SNB-19)?
A: Its GI50 is > 100 µM (inactive).

Q: And the GI50 (HT-29)?
A: The GI50 was > 100 µM (inactive).

Q: What about the GI50 (OVCAR-8) of the same compound?
A: Its GI50 is > 100 µM (inactive).

Q: What about the GI50 (SF-295) of the same compound?
A: Its GI50 is > 100 µM (inactive).

Q: What about the GI50 (SK-MEL-2) of the same compound?
A: Its GI50 is > 100 µM (inactive).

Q: What about the GI50 (A549) of the same compound?
A: The GI50 was > 100 µM (inactive).

Q: What about the GI50 (XF498) of the same compound?
A: Its GI50 is > 100 µM (inactive).

Q: What about the GI50 (HCT-116) of the same compound?
A: Its GI50 is > 100 µM (inactive).

Q: What about the GI50 (UO-31) of the same compound?
A: Its GI50 is > 100 µM (inactive).

Q: What about the GI50 (SNB-75) of the same compound?
A: The GI50 was > 100 µM (inactive).

Q: What about the GI50 (LOX IMVI) of the same compound?
A: The GI50 was > 100 µM (inactive).

Q: What about the GI50 (DMS-114) of the same compound?
A: The GI50 was > 100 µM (inactive).

Q: What about the GI50 (HL-60) of the same compound?
A: Its GI50 is > 100 µM (inactive).

Q: And the GI50 (MOLT-4)?
A: The GI50 was > 100 µM (inactive).

Q: What about the GI50 (DMS-273) of the same compound?
A: Its GI50 is > 100 µM (inactive).

Q: What about the GI50 (Malme-3M) of the same compound?
A: Its GI50 is > 100 µM (inactive).

Q: And the GI50 (UACC-257)?
A: Its GI50 is > 100 µM (inactive).

Q: What about the GI50 (HCT-15) of the same compound?
A: Its GI50 is greater than 100 µM.

Q: And the GI50 (K562)?
A: Its GI50 is > 100 µM (inactive).

Q: And the GI50 (HCC 2998)?
A: Its GI50 is > 100 µM (inactive).

Q: What about the GI50 (M14) of the same compound?
A: The GI50 was > 100 µM (inactive).

Q: What about the GI50 (IGROV-1) of the same compound?
A: Its GI50 is > 100 µM (inactive).

Q: And the GI50 (SN12C)?
A: Its GI50 is > 100 µM (inactive).

Q: What about the GI50 (HOP-62) of the same compound?
A: The GI50 was > 100 µM (inactive).

Q: What about the GI50 (NCI-H522) of the same compound?
A: Its GI50 is > 100 µM (inactive).

Q: And the GI50 (EKVX)?
A: The GI50 was > 100 µM (inactive).

Q: What about the GI50 (SK-MEL-5) of the same compound?
A: The GI50 was > 100 µM (inactive).

Q: What about the GI50 (SK-OV-3) of the same compound?
A: Its GI50 is > 100 µM (inactive).

Q: And the GI50 (DLD-1)?
A: Its GI50 is > 100 µM (inactive).

Q: What about the GI50 (SW-620) of the same compound?
A: Its GI50 is > 100 µM (inactive).

Q: And the GI50 (KM-20L2)?
A: The GI50 was > 100 µM (inactive).

Q: And the GI50 (LXFL 529)?
A: Its GI50 is > 100 µM (inactive).

Q: And the GI50 (COLO 205)?
A: Its GI50 is > 100 µM (inactive).

Q: And the GI50 (OVCAR-3)?
A: Its GI50 is > 100 µM (inactive).

Q: Which results are given for `COc1c(OC(C)=O)ccc(/C=C2\N=C(C)OC2=O)c1[N+](=O)[O-]`?
A: GI50 (SR): > 100 µM (inactive); GI50 (M19-MEL): > 100 µM (inactive); GI50 (ACHN): > 100 µM (inactive); GI50 (U-251): > 100 µM (inactive); GI50 (HOP-18): > 100 µM (inactive); GI50 (NCI-H460): > 100 µM (inactive); GI50 (UACC-62): > 100 µM (inactive); GI50 (A498): > 100 µM (inactive); GI50 (786-0): > 100 µM (inactive); GI50 (SNB-78): > 100 µM (inactive); GI50 (TK-10): > 100 µM (inactive); GI50 (CCRF-CEM): > 100 µM (inactive); GI50 (OVCAR-4): > 100 µM (inactive); GI50 (HOP-92): > 100 µM (inactive); GI50 (CAKI-1): > 100 µM (inactive); GI50 (KM12): > 100 µM (inactive); GI50 (OVCAR-5): > 100 µM (inactive); GI50 (SF-268): > 100 µM (inactive); GI50 (SF-539): > 100 µM (inactive); GI50 (SNB-19): > 100 µM (inactive); GI50 (HT-29): > 100 µM (inactive); GI50 (OVCAR-8): > 100 µM (inactive); GI50 (SF-295): > 100 µM (inactive); GI50 (SK-MEL-2): > 100 µM (inactive); GI50 (A549): > 100 µM (inactive); GI50 (HCT-116): > 100 µM (inactive); GI50 (UO-31): > 100 µM (inactive); GI50 (SNB-75): 91.6 µM (inactive); GI50 (LOX IMVI): > 100 µM (inactive); GI50 (HL-60): > 100 µM (inactive); GI50 (MOLT-4): > 100 µM (inactive); GI50 (RPMI-8226): > 100 µM (inactive); GI50 (DMS-273): > 100 µM (inactive); GI50 (Malme-3M): > 100 µM (inactive); GI50 (UACC-257): > 100 µM (inactive); GI50 (HCT-15): > 100 µM; GI50 (K562): > 100 µM (inactive); GI50 (HCC 2998): > 100 µM (inactive); GI50 (M14): > 100 µM (inactive); GI50 (IGROV-1): > 100 µM (inactive); GI50 (SN12C): > 100 µM (inactive); GI50 (HOP-62): > 100 µM (inactive); GI50 (NCI-H522): > 100 µM (inactive); GI50 (SK-MEL-5): > 100 µM (inactive); GI50 (SK-OV-3): > 100 µM (inactive); GI50 (DLD-1): > 100 µM (inactive); GI50 (RXF 393): > 100 µM (inactive); GI50 (SW-620): > 100 µM (inactive); GI50 (KM-20L2): > 100 µM (inactive); GI50 (LXFL 529): > 100 µM (inactive); GI50 (COLO 205): > 100 µM (inactive); GI50 (RXF 631): > 100 µM (inactive)
